# Experiments:
# [1] = test system: mouse embryonic fibroblasts (MEFs); assay: OSKM reprogramming of MEFs with drug treatment, alkaline phosphatase (AP) staining / sensitivity score; type: cell-based
# Description: For infection, P1 mouse embryonic fibroblasts (MEFs) were thawed and plated at 1×10^6 cells per 10 cm dish on the previous day. Infection proceeded in two rounds with 8 h to 9 h in between. Briefly, cells were incubated with an OSKM/rtta virus mix (1:1), supplemented with 8 ug/ml protamine sulfate (Fisher Scientific #0219472905). The infection mix was removed on the following day and cells were left to recover in fresh MEF media (DMEM HG Thermo Fisher Scientific #10569010 with 10% FBS Atlanta Biologicals #S11150, Glutamax Thermo Fisher Scientific #35050079 and PenStrep Thermo Fisher Scientific 15140163).
# Two days after infection, cells were re-plated for transduction efficiency assessment on day 3, molecular analyses on day 5, colony picking on day 16 and alkaline phosphatase (AP) staining on day 20. In each experiment, infected fibroblasts from the different genotypes were replated at multiple densities to allow for optimal reprogramming efficiency. For wild-type cells, 100-300 cells/mm^2 (20-60K per well of a 24 w dish) routinely generated high numbers of iPS cell clones. Besides for wild-type, 20-60K per well of a 24 w dish was also optimal for the Bard1 point mutants, Brca1^tr/+ and all combination mutations with Smarcal1 or 53bp1; Brca1^tr/tr, 53bp1^−/− as well as the heterozygous or homozygous Smarcal1 and 53bp1 single mutants. […] The remaining Brca1^tr/tr53BP1^+/− genotype was re-plated at 450 cells/mm^2 (90K/well of a 24 w dish). These seeding densities were later used to calculate the reprogramming efficiency of each genotype. The OSKM reprogramming factors were induced with 1 ug/ml doxycycline (Sigma #D9891) in mouse embryonic stem (mES) cell media, consisting of Knockout DMEM (Life Technologies #10829-018), supplemented with 15% Knockout Serum Replacement (Life Technologies #10828-028), Glutamax (Thermo Fisher Scientific #35050079), MEM NEAA (Life Technologies #11140050), PenStrep (Thermo Fisher Scientific 15140163), 2-mercaptoetahnol (Life Technologies #21985-023) and […] LIF (eBioscience #34-8521-82). Transduction efficiency was determined on reprogramming day 3 by staining for Sox2 (Stemgent #09-0024) and used in the calculation of reprograming efficiency. The reprogramming experiments with drug treatment used aphidicolin (Sigma #A0781) at 0.2 uM, Ttpotecan (Sigma #T2705) at 10 nM or the DNA PK inhibitor NU7026 (Tocris #2828) at 5 uM for 8 days during reprogramming.
# Alternatively, for the induction of two-ended DSBs, cells were subjected to a single dose of 6 Gy IR 1 day post doxycycline-mediated OSKM factor induction. Cells were fixed on reprogramming day 18-20 and stained for alkaline phosphatase with the Vector Red detection kit (Vector Laboratories #SK-5100). Reprogramming efficiency was determined by considering the number of AP-positive colonies per number of infected cells, determined by Sox2 staining at the optimal plating density for each genotype. The sensitivity score in the experiments with aphidicolin, topotecan and IR was calculated as follows: the reprogramming efficiency of wild-type treated cells was determined as described above and normalized to the reprogramming efficiency of wild type untreated cells. The same procedure was applied to each mutant genotype. The sensitivity score was obtained by calculating the ratio of treated wild type (normalized to untreated wild type) to treated mutant (normalized to untreated mutant). A large score corresponds to high sensitivity.
# [2] = test system: wild-type uninfected MEFs; assay: 53bp1 foci immunofluorescence in uninfected fibroblasts treated with aphidicolin; type: cell-based, mouse; details: 0.2 uM aphidicolin for 3 days
# Description: Detection of […], phospho RPA(S33) and 53bp1 was performed on reprogramming D5 with the following antibodies: Phospho-RPA2Ser33 (Invitrogen #PA5-39809); Anti-phosphoHistone H2A.X-Ser139 (Millipore #05-636); and 53BP1 Antibody H-300 (Santa Cruz #22760). For detection of Rad51, iPS cell lines were irradiated with 10 Gy and stained with Rad51 (Ab-1) Rabbit pAb (Millipore #PC130) 1.5 h post IR.
# The DNA damage observed in the form of phosphorylated H2AX during reprogramming can be the result of global epigenetic remodeling (Hernandez et al., 2018), oxidative stress (Ji et al., 2014) or elevated replication stress (Ruiz et al., 2015). To determine the specific type of DNA damage which is most limiting to iPS cell generation, mouse embryonic fibroblasts (MEFs) were treated during reprogramming with the DNA polymerase inhibitor aphidicolin, which induces one-ended double strand breaks (DSBs), processed by HDR (Rothkamm et al., 2003). To test the effect of aphidicolin on primary cells, uninfected wild type fibroblasts were incubated with 0.2 uM aphidicolin for 3 days and noted an increase in the numbers of 53bp1 foci (FIG. 4B).
smiles,measurement,setting,value
"O=c1cc(N2CCOCC2)oc2c1ccc1ccccc12 [DNA PK inhibitor, NU7026]",efficiency of reprogramming,"[1]; wild type MEFs, 5 uM DNA PK inhibitor for 8 days during reprogramming",no effect
C[C@@]1(CO)[C@H](O)CC[C@@]2(C)[C@H]1CC[C@H]1C[C@@H]3C[C@@]12CC[C@]3(O)CO [aphidicolin],numbers of 53bp1 foci,[2],increase
same,sensitivity of reprogramming,"[1]; 53bp1^-/- mutants, 0.2 uM aphidicolin for 8 days during reprogramming",less sensitive
same,reprogramming efficiency compared to the Brca1^tr/tr genotype,"[1]; Brca1^tr/tr53bp1^-/- cells, 0.2 uM aphidicolin for 8 days during reprogramming",improvement of reprogramming efficiency
same,sensitivity of reprogramming (colony numbers relative to wild-type),"[1]; Brca1^tr/tr cells, 0.2 uM aphidicolin for 8 days during reprogramming",pronounced sensitivity
same,reprogramming efficiency,"[1]; wild type cells, 0.2 uM aphidicolin for 8 days during reprogramming",reduced the efficiency of the process
CC[C@@]1(O)C(=O)OCc2c1cc1n(c2=O)Cc2cc3c(CN(C)C)c(O)ccc3nc2-1 [topotecan],sensitivity of reprogramming,"[1]; 53bp1 null cells, 10 nM topotecan for 8 days during reprogramming",reduced sensitivity
same,sensitivity of reprogramming,"[1]; Brca1^tr/tr53bp1^-/- cells, 10 nM topotecan for 8 days during reprogramming",mild sensitivity
same,reprogramming efficiency,"[1]; Brca1^tr/tr cells, 10 nM topotecan for 8 days during reprogramming",greatly reduced efficiency
same,sensitivity of reprogramming,"[1]; wild-type cells, 10 nM topotecan for 8 days during reprogramming",barely sensitive
